Measured values from US10070660B2, “Pet food palatability with antimicrobial properties based on organic acids” (KEMIN INDUSTRIES, INC., priority 2012, dated 2018).
“Also recorded” adds a separate entry of the source.

Columns and labels:
cats = assay: Cat palatability, two-pan method (intake ratio); assay type: in vivo; details: for IR-A: Ration B incumbent; for IR: vs name brand cat food
[1] = tested on: Salmonella (five Salmonella enterica serovars); assay: Cat kibble challenge with dried five strain Salmonella cocktail inoculum; assay type: cell-based
Procedure: (§1) One ml of each Salmonella culture was separately inoculated into a beaker containing tempered (ambient), sterilized MBM which was then incubated at 37° C. for 48 hours. Inoculated MBM was dispensed (approx. 200 g) into sterile 250 ml centrifuge bottles and centrifuged at 5,000 rpm for 10 minutes. The supernatant was decanted and autoclaved for disposal. The pellets were suspended in 10 ml TSB-20% glycerol. Suspensions (approximately 150-160 g) were transferred to sterilized 250 ml polycarbonate straight side wide mouth jars with lids (Nalgene, Thermo Scientific). Jars containing MBM-Salmonella suspensions were immediately frozen at −70° C. for 1 hour. Frozen MBM-Salmonella suspensions were lyophilized using a FreeZone-1 Liter benchtop freeze dry system (Labconco) (approx. 96 hours, −50° C.). Each lyophilized Salmonella culture was pulverized to a fine powder using a sterile mortar and pestle. Twenty g of each of the five lyophilized Salmonella cultures was combined in a sterile wide mouth glass jar to make the dried Salmonella cocktail inoculum. […] Solidified plates were incubated inverted at 37° C. for 16-18 hours. Visible colonies were counted and colony forming units per gram were calculated (CFU/g). […] Kibble and inoculum were mixed together for five minutes by hand in a plastic zip top bag, and allowed to rest for 1 hour prior to sampling. Coated, un-inoculated kibble was also included in the study and tested for Salmonella (direct plating and FDA BAM), total aerobic bacteria, mold and yeast counts, pH, percent moisture, and water activity. For each analysis time point challenged kibble was sampled in triplicate. Kibbles were stored at ambient temperature.
(§2) Challenged kibble samples bags were mixed thoroughly, then 5.00 g (±0.01) was aseptically weighed into a sterile plastic bag and diluted with 45 ml sterile Phosphate Buffer (Butterfield) diluent (BPB) containing (g/l) KH2PO4 34.0, pH adjusted to 7.2 with 1N sodium hydroxide and homogenized using a Stomacher (Seward Stomacher 80) for 1 minute and serially diluted in BPB for plating. The plates are poured with tempered (45° C.) XLD agar. After solidification, plates were inverted and placed in an incubator (37° C.). Colonies were counted and CFU/g was calculated. The counts for each triplicate sample were averaged and expressed as log CFU/g. Those samples of which were below the detection limit of <10 CFU/g were assigned 0 log CFU/g for the purpose of statistical analysis. Analysis of Variance using the LSD separation of means method was performed to analyze the data using StatGraphics software (StatPoint Technologies, Inc. Warrenton, Va.).
All procedures for the Phase 3 kibble challenge were conducted as described for Phase 2.

[2] = tested on: Salmonella (five Salmonella enterica serovars); assay: Dog kibble challenge with dried five strain Salmonella cocktail inoculum; assay type: cell-based
Procedure: as §1, §2
Dry dog palatants were formulated with fumaric acid or SBS to deliver 0.5% acid to the surface of the kibble. The effect of each acid on Salmonella challenged on the surface of dog kibble was examined. Dog kibbles were challenged with dried five strain Salmonella cocktail inoculum.
The effect of each acid on Salmonella challenged on the surface of dog kibble was examined. Dog kibbles were challenged with dried five strain Salmonella cocktail inoculum prep.

**Q.** What does the source list for `O=C(O)/C=C/C(=O)O` [Fumaric Acid, fumaric acid]?
**A.** IR-A (cats; Confirmation trials, Prototype 89-87, 0.25% acid on kibble (so in the source)): 0.65 (p ≤ 0.05); palatability (in words) (cats; Example 4 cat trials, formula 89-87 or 89-145 vs incumbent dry palatant): parity palatability score; also recorded: scores improved; IR-A (cats; First set, Prototype 89-87 at 2.5%, 0.5% total acid on kibble): 0.46 (N.S.); IR (cats; Trial 412 (so in the source), 20% fumaric acid in formula (80 mesh), 0.30% on kibble): 0.77; IR (cats; Trial 426, 14% fumaric acid in formula (30 mesh sieve), 0.21% on kibble): 0.57; IR (cats; Trial 465, 14% fumaric acid in formula (80 mesh sieve), 0.21% on kibble): 0.62; IR (cats; Trial 481, 27% fumaric acid in formula (80 mesh), ~0.41% on kibble): 0.74; Salmonella ([1]; Table 4, 0.21% on cat kibble, day 0): 2.79 ± 0.35^Aa log CFU/g; Salmonella ([1]; Table 4, 0.21% on cat kibble, day 1): 2.85 ± 0.07^Aa log CFU/g; Salmonella ([1]; Table 4, 0.21% on cat kibble, day 8): 2.02 ± 0.13^Bab log CFU/g; Salmonella ([1]; Table 4, 0.21% on cat kibble, day 14): 1.44 ± 0.24^Bbc log CFU/g; Salmonella ([1]; Table 4, 0.21% on cat kibble, day 22): 0.77 ± 0.39^Bc log CFU/g; Salmonella ([1]; Table 5, 0.30% on cat kibble, day 0): 2.44 ± 0.21^Aa log CFU/g; Salmonella ([1]; Table 5, 0.30% on cat kibble, day 1): 1.26 ± 0.14^Bab log CFU/g; Salmonella ([1]; Table 5, 0.30% on cat kibble, day 5): 0.57 ± 0.57^Bb log CFU/g; Salmonella ([1]; Table 5, 0.41% on cat kibble, day 0): 1.46 ± 0.09^Ba log CFU/g; Salmonella ([1]; Table 5, 0.41% on cat kibble, day 1, below detection limit assigned 0): 0.0 ± 0.0^Cb* log CFU/g; Salmonella ([1]; Table 5, 0.41% on cat kibble, day 5, below detection limit assigned 0): 0.0 ± 0.0^Bb* log CFU/g; Salmonella ([1]; Table 12, 0.50% total acid on cat kibble, day 0): 3.38 ± 0.02^Ba log CFU/g; Salmonella ([1]; Table 12, 0.50% total acid on cat kibble, day 1): 1.98 ± 0.02^Bb log CFU/g; Salmonella ([1]; Table 12, 0.50% total acid on cat kibble, day 5): 1.10 ± 0.10^Bc log CFU/g; Salmonella ([1]; Table 12, 0.50% total acid on cat kibble, day 7): 0.33 ± 0.33^Bd log CFU/g; Salmonella ([1]; Table 12, 0.50% total acid on cat kibble, day 14): 0.33 ± 0.33^Bd log CFU/g; Salmonella ([1]; Table 12, 0.50% total acid on cat kibble, day 21): 0.00 ± 0.00^Bd log CFU/g; Salmonella counts on challenged cat kibble vs control palatant (in words) ([1]; cat kibble challenge): significant efficacy against Salmonella spp; also recorded: significantly lower Salmonella counts; also recorded: demonstrated antimicrobial activity; also recorded: significant reduction in Salmonella count; also recorded: dose response; Salmonella counts ([1]; highest level of fumaric acid on cat kibble, after 1 day, detection limit): < 10 CFU/g; Salmonella ([2]; Table 15, 0.50% on dog kibble, day 0): 1.98 ± 0.14^Ca log CFU/g; Salmonella ([2]; Table 15, 0.50% on dog kibble, day 1): 1.10 ± 0.10^Cb log CFU/g; Salmonella ([2]; Table 15, 0.50% on dog kibble, day 3): 0.77 ± 0.39^Abc log CFU/g; Salmonella ([2]; Table 15, 0.50% on dog kibble, day 7): 0.33 ± 0.33^Bcd log CFU/g; Salmonella ([2]; Table 15, 0.50% on dog kibble, day 9): 0.33 ± 0.33^Bcd log CFU/g; Salmonella ([2]; Table 15, 0.50% on dog kibble, day 14): 0.00 ± 0.00^Bd log CFU/g; Salmonella ([2]; Table 15, 0.50% on dog kibble, day 21): 0.00 ± 0.00^Bd log CFU/g; Salmonella ([2]; Table 17, total of 0.5% acid on dog kibble, day 0): 1.99 ± 0.22^CDa log CFU/g; Salmonella ([2]; Table 17, total of 0.5% acid on dog kibble, day 1): 0.43 ± 0.43^Bb log CFU/g; Salmonella ([2]; Table 17, total of 0.5% acid on dog kibble, day 6): 0.00 ± 0.00^Bb log CFU/g; Salmonella ([2]; Table 17, total of 0.5% acid on dog kibble, day 14): 0.00 ± 0.00^Bb log CFU/g; Salmonella ([2]; Table 17, total of 0.5% acid on dog kibble, day 21): 0.00 ± 0.00^Bb log CFU/g; Salmonella counts on challenged dog kibble vs control palatant (in words) ([2]; dog kibble challenge): significantly lower Salmonella counts than the control and SBS formula
